Results published in the NIST ThermoML archive (doi:10.1016/j.fluid.2004.11.019).
Numbers after ± are expanded uncertainties.

Conditions: Liquid

SMILES: CCO [ethanol]
- mass density (298.15 K, 100 kPa): 785.7 ± 0.4 kg/m3
- mass density (298.15 K, 10000 kPa): 794 ± 0.4 kg/m3
- mass density (298.15 K, 20000 kPa): 801.9 ± 0.6 kg/m3
- mass density (298.15 K, 30000 kPa): 808.9 ± 0.7 kg/m3
- mass density (298.15 K, 40000 kPa): 815.7 ± 0.8 kg/m3
- mass density (323.15 K, 100 kPa): 763.7 ± 0.4 kg/m3
- mass density (323.15 K, 10000 kPa): 773.4 ± 0.5 kg/m3
- mass density (323.15 K, 20000 kPa): 782.3 ± 0.6 kg/m3
- mass density (323.15 K, 30000 kPa): 790.3 ± 0.7 kg/m3
- mass density (323.15 K, 40000 kPa): 797.7 ± 0.9 kg/m3
- mass density (348.15 K, 100 kPa): 739.4 ± 0.4 kg/m3
- mass density (348.15 K, 10000 kPa): 751.2 ± 0.5 kg/m3
- mass density (348.15 K, 20000 kPa): 761.2 ± 0.6 kg/m3
- mass density (348.15 K, 30000 kPa): 770.3 ± 0.8 kg/m3
- mass density (348.15 K, 40000 kPa): 778.6 ± 0.9 kg/m3
